US6562758B1 (priority 1999, dated 2003)
Several values for one entry are separate records, joined by “and”; a condition that tells them apart may be missing. Identical values can stand only once. Like-named read-outs stand apart in the source and are kept apart here.

Experiments:
Conditions in all cases: in vivo
[1] = tested on: kidney beans; set-up: species or system kidney bean
[2] = tested on: cotton plants; set-up: species or system cotton (Gossypium hirsutum)
[3] = tested on: kidney beans; set-up: species or system kidney bean; remark: listed apart in the source
[4] = tested on: cotton plants; set-up: species or system cotton (Gossypium hirsutum); remark: listed apart in the source
[5] = tested on: red kidney bean plants
[6] = tested on: cotton plants; set-up: species or system cotton (Gossypium hirsutum); remark: listed apart in the source
[7] = tested on: red kidney bean plants; remark: listed apart in the source
[8] = tested on: cotton plants; set-up: species or system cotton (Gossypium hirsutum); remark: listed apart in the source
[9] = tested on: potato plants

CCOC(=O)/C(Cl)=C/c1cc(N2C(=O)C3=C(CCCC3)C2=O)ccc1Cl [BAS 123W, cinidon-ethyl]
% Regrowth at 21 DAT [1]: 124% and 110% and 73%
regrowth [1]: tended to promote regrowth

C/C(=N\NC(=O)Nc1cc(F)cc(F)c1)c1ncccc1C(=O)O [DFP, diflufenzopyr]
% Defoliation [2]: 23% and 40% and 39% and 21%
% Defoliation 15 DAT [3]: 59%
% Regrowth Avg. [4]: 7% and 6%
regrowth [1]: reduced regrowth as compared to the untreated check

O=P(O)(O)CCCl [ETP, (2-chloroethyl)phosphonic acid]
% Regrowth [5]: 10%
% Defoliation [6]: 31% and 49%
% Defoliation [2]: 58% and 78%
% Defoliation [7]: 18% and 20%
% Defoliation 15 DAT [3]: 28%
% Regrowth Avg. [4]: 51%
% Regrowth 20 DAT [8]: 36.3%

C[n+]1ccc(-c2cc[n+](C)cc2)cc1 [Paraquat, paraquat]
Percent Defoliation [9]: 76% and 44%
